From US12066439B2, “Methods for enhancing specificity and sensitivity of group a Streptococcus immunoassay” (Becton, Dickinson and Company, priority 2021, dated 2024)
“Also recorded” adds a separate entry of the source.

Legend:
[1] = test system: anti-Strep A polyclonal antibodies; experiment: Strep A lateral flow immunoassay (Veritor Strep A), false positive signal from porcine mucin samples; assay type: binding; settings: for false positive signals from porcine mucin samples: agent added directly to the sample, 4x mucin standard (~2.5 mg/mL), FIGS. 5-6
Protocol: 2-N-butanoyl-D-glucosamide, or Bis-(2-(D-2-deoxy-glucosaminyl))-PEG3-amide were tested for their ability to inhibit or block the binding of the anti-Strep A polyclonal antibodies in the Strep A immunoassay (Veritor™ Strep A assay). Porcine mucin samples were used as a surrogate of human saliva sample, and were tested with an immunoassay test strip for specificity. Using an immunoassay device for detection of Strep A, the effect of 2-N-butanoyl-D-glucosamide, or Bis-(2-(D-2-deoxy-glucosaminyl))-PEG3-amide on the performance of Strep A assay was evaluated using 4× concentration of mucin standard (˜2.5 mg/mL) and Test Standard 1. […] Different concentrations of 2-N-butanoyl-D-glucosamide, or Bis-(2-(D-2-deoxy-glucosaminyl))-PEG3-amide in an immunoassay were evaluated for inhibition of Strep A false positive signals.
m-PEG4-glucosamine, m-PEG6-glucosamine, m-PEG10-glucosamine and m-PEG5000-glucosamine were tested for their ability to inhibit or block the binding of the anti-Strep A polyclonal antibodies in the Strep A immunoassay. […] Different concentrations of m-PEG4-glucosamine, m-PEG6-glucosamine, m-PEG10-glucosamine and m-PEG5000-glucosamine in an immunoassay were evaluated for inhibition of Strep A false positive signals.

[2] = test system: anti-Strep A polyclonal antibodies; experiment: Strep A lateral flow immunoassay (Veritor Strep A), sensitivity with sample containing Strep A antigen; assay type: binding; settings: for sensitivity of the Strep A assay: agent mixed with sample containing Strep A antigen, FIG. 10
Protocol: FIGS. 1A-1C show the effect of N-propionyl-D-glucosamine on the sensitivity and false positivity of the Veritor™ Strep A assay when analyzing a test sample. The N-propionyl-D-glucosamine was added to the extraction reagent and mixed with porcine mucin, a surrogate of human mucin from saliva for specificity, or with Strep A extract for sensitivity.
2-N-butanoyl-D-glucosamide, or Bis-(2-(D-2-deoxy-glucosaminyl))-PEG3-amide were tested for their ability to inhibit or block the binding of the anti-Strep A polyclonal antibodies in the Strep A immunoassay (Veritor™ Strep A assay). Porcine mucin samples were used as a surrogate of human saliva sample, and were tested with an immunoassay test strip for specificity. Using an immunoassay device for detection of Strep A, the effect of 2-N-butanoyl-D-glucosamide, or Bis-(2-(D-2-deoxy-glucosaminyl))-PEG3-amide on the performance of Strep A assay was evaluated using 4× concentration of mucin standard (˜2.5 mg/mL) and Test Standard 1. Either 2-N-butanoyl-D-glucosamide, or Bis-(2-(D-2-deoxy-glucosaminyl))-PEG3-amide was added directly to the sample. Different concentrations of 2-N-butanoyl-D-glucosamide, or Bis-(2-(D-2-deoxy-glucosaminyl))-PEG3-amide in an immunoassay were evaluated for inhibition of Strep A false positive signals.

[3] = test system: Rabbit polyclonal antibodies for Group A Strep; settings: previous studies, US 2013/0196337; cited from earlier work
[4] = test system: anti-Strep A polyclonal antibodies; experiment: Strep A lateral flow immunoassay (Veritor Strep A), false positive signal from saliva samples; assay type: binding; settings: saliva from asymptomatic patients; FIGS. 1-4
Protocol: Saliva samples were collected from four asymptomatic patients and tested with an immunoassay test strip for specificity. Previous studies have reported that samples obtained from the mouth tissues, saliva, cheek and tongue of healthy control patients show high false positive rates for Strep A when assayed via a lateral flow immunoassay. See US20130196337A1.
N-propionyl-D-glucosamine was tested for its ability to inhibit or block the binding of the anti-Strep A polyclonal antibodies in the Strep A immunoassay. Saliva samples from four asymptomatic patients were obtained for testing. Using an immunoassay device for detection of Strep A, the four saliva samples were each treated with the extraction reagents (such as the extraction reagents in a commercially available BD Veritor™ Strep A kit) in the presence of N-propionyl-D-glucosamine, which was dried on the conjugate pad during the spraying of liquid conjugate on the conjugate pad (labeling zone). Different concentrations of N-propionyl-D-glucosamine in an immunoassay were evaluated for inhibition of Strep A false positive signals.

[5] = test system: anti-Strep A polyclonal antibodies; experiment: Strep A detection assay, agent added to extraction solution (GAS 1+2) without mucin; assay type: binding; settings: no mucin, FIG. 11
[6] = agent added directly to the sample, Test Standard 1, FIGS. 5-6
[7] = high concentration in sample pad or conjugate pad dipping solution, FIG. 8
[8] = lower concentrations (zero to 12.5 mM tested) in conjugate pad dipping solution, FIG. 9
[9] = agent mixed with porcine mucin sample, FIG. 10

CCCC(=O)N[C@H]1C(O)O[C@H](CO)[C@@H](O)[C@@H]1O (stereo partly drawn) [2-N-butanoyl-D-glucosamide]
false positive signals from porcine mucin samples [1]: efficiently suppressed | overall sensitivity of the Veritor Strep A assay [2, 6]: did not significantly reduce

CC(=O)N[C@H]1C(O)O[C@H](CO)[C@@H](O)[C@@H]1O (stereo partly drawn) [N-acetyl-D-glucosamine]
assay sensitivity [3]: significant reduction | assay specificity (interference by salivary proteins) [3]: can improve assay specificity

CCC(=O)N[C@H]1C(O)O[C@H](CO)[C@@H](O)[C@@H]1O (stereo partly drawn) [N-propionyl-D-glucosamine]
false positive signals from saliva specimens [4]: efficiently suppressed | overall sensitivity of the Veritor Strep A assay ([2]; FIG. 1 and FIG. 3): did not reduce

Bis-(2-(D-2-deoxy-glucosaminyl))-PEG3-amide
mucin induced false positive signal ([1]; added in sample, two lots of Strep A devices that previously showed mucin cross-reaction, FIG. 7): significantly reducing | false positive signal ([1]; added to conjugate pad dipping solution and/or sample pad dipping solution, FIG. 8): significantly reduced | false positive signals from porcine mucin samples [1]: efficiently suppressed | false positive signal caused by mucin [1, 7]: effectively eliminate | mucin cross-reaction [1, 8]: effectively eliminate | true sensitivity ([2]; added in sample, two lots of Strep A devices, FIG. 7): slightly inhibited | overall sensitivity of the Veritor Strep A assay [2, 6]: did not significantly reduce | true signal [2, 7]: inhibit | true sensitivity [2, 8]: without much impact

m-PEG4-glucosamine
mucin cross-reaction [1, 9]: effective in eliminating | sensitivity of the Strep A assay [2]: without significant impact

m-PEG6-glucosamine
mucin cross-reaction [1, 9]: effective in eliminating | sensitivity of the Strep A assay [2]: without significant impact

m-PEG10-glucosamine
mucin cross-reaction [1, 9]: effective in eliminating | sensitivity of the Strep A assay [2]: without significant impact

m-PEG5000-glucosamine
false positive signal when mucin is not present [5]: no any false positive signal was observed | false positive signal caused by mucin ([1]; agent added to sample, mucin present, FIG. 11): did not reduce the false positive signal caused by mucin, but instead increases the false positive signal; also recorded: does not reduce the false positive signal caused by mucin, but instead increases the false positive signal
